Assay results reported in BindingDB's records for doi:10.1016/s0165-0270(00)00358-7 (University of Nebraska, 2001).

target: T1, Alpha-2C adrenergic receptor (Rattus norvegicus, UniProt P22086)
T1 sequence (P22086 whole entry): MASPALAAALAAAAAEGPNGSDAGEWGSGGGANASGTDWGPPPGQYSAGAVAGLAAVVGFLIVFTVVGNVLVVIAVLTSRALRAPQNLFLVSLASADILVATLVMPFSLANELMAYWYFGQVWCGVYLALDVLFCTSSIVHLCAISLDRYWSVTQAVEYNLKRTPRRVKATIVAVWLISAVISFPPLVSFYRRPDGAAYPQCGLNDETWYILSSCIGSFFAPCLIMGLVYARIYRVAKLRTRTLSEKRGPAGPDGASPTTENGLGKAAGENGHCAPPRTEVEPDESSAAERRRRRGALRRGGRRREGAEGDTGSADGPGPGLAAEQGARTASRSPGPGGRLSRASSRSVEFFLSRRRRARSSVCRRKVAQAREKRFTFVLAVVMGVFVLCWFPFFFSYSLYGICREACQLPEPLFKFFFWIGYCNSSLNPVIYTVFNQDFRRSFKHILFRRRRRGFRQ

| SMILES | Ki [nM] |
| --- | --- |
| Nc1ncnc2c1ncn2[C@@H]1O[C@H](COP(=O)(O)OP(=O)(O)OP(=O)(O)O)[C@@H](O)[C@H]1O | 3.1 |
| Nc1nc2c(ncn2[C@@H]2O[C@H](COP(=O)(O)OP(=O)(O)NP(=O)(O)O)[C@@H](O)[C@H]2O)c(=O)[nH]1 [CAS_59803-98-4] | 6.2 |
| [N-]=[N+]=Nc1ccc(NP(=O)(O)OP(=O)(O)OP(=O)(O)OC[C@H]2O[C@@H](n3cnc4c(=O)[nH]c(N)nc43)[C@H](O)[C@@H]2O)cc1 [CAS_59803-98-4] | 1.6 |
